Assay results reported in ChEMBL document CHEMBL4715697, “Synthesis and biological activity of benzamide DNA minor groove binders” (2016).

Assays:
Format in all cases: functional
KM12 = test: Growth inhibition of human KM12 cells incubated for 48 hrs by sulforhodamine B assay
Hs-578T = test: Growth inhibition of human Hs-578T cells assessed as cell growth at 0.1 uM incubated for 48 hrs by sulforhodamine B assay relative to control; details: read-out: Activity
T47D [1] = test: Growth inhibition of human T47D cells assessed as cell growth at 100 uM incubated for 48 hrs by sulforhodamine B assay relative to control; details: read-out: Activity
MCF7 [2] = test: Growth inhibition of human MCF7 cells assessed as cell growth at 1 uM incubated for 48 hrs by sulforhodamine B assay relative to control; details: read-out: Activity
CCRF-CEM = test: Growth inhibition of human CCRF-CEM cells assessed as cell growth at 1 uM incubated for 48 hrs by sulforhodamine B assay relative to control; details: read-out: Activity
SN12C = test: Growth inhibition of human SN12C cells assessed as cell growth at 0.1 uM incubated for 48 hrs by sulforhodamine B assay relative to control; details: read-out: Activity
LOX IMVI [3] = test: Growth inhibition of human LOX IMVI cells incubated for 48 hrs by sulforhodamine B assay
UACC-62 = test: Growth inhibition of human UACC-62 cells assessed as cell growth at 1 uM incubated for 48 hrs by sulforhodamine B assay relative to control; details: read-out: Activity
SF-539 = test: Growth inhibition of human SF-539 cells assessed as cell growth at 100 uM incubated for 48 hrs by sulforhodamine B assay relative to control; details: read-out: Activity
UO-31 = test: Growth inhibition of human UO-31 cells assessed as cell growth at 0.01 uM incubated for 48 hrs by sulforhodamine B assay relative to control; details: read-out: Activity
SF-268 [4] = test: Growth inhibition of human SF-268 cells assessed as cell growth at 1 uM incubated for 48 hrs by sulforhodamine B assay relative to control; details: read-out: Activity
MDA-MB-231 = test: Growth inhibition of human MDA-MB-231 cells assessed as cell growth at 100 uM incubated for 48 hrs by sulforhodamine B assay relative to control; details: read-out: Activity
OVCAR-5 = test: Growth inhibition of human OVCAR-5 cells incubated for 48 hrs by sulforhodamine B assay
786-0 = test: Growth inhibition of human 786-0 cells assessed as cell growth at 100 uM incubated for 48 hrs by sulforhodamine B assay relative to control; details: read-out: Activity
LOX IMVI [5] = test: Growth inhibition of human LOX IMVI cells assessed as cell growth at 100 uM incubated for 48 hrs by sulforhodamine B assay relative to control; details: read-out: Activity
NCI-H460 = test: Growth inhibition of human NCI-H460 cells assessed as cell growth at 0.01 uM incubated for 48 hrs by sulforhodamine B assay relative to control; details: read-out: Activity
HCT-116 = test: Growth inhibition of human HCT-116 cells incubated for 48 hrs by sulforhodamine B assay
T47D [6] = test: Growth inhibition of human T47D cells assessed as cell growth at 1 uM incubated for 48 hrs by sulforhodamine B assay relative to control; details: read-out: Activity
IGROV-1 = test: Growth inhibition of human IGROV-1 cells assessed as cell growth at 0.01 uM incubated for 48 hrs by sulforhodamine B assay relative to control; details: read-out: Activity
EKVX [7] = test: Growth inhibition of human EKVX cells incubated for 48 hrs by sulforhodamine B assay
NCI-H226 = test: Growth inhibition of human NCI-H226 cells assessed as cell growth at 0.1 uM incubated for 48 hrs by sulforhodamine B assay relative to control; details: read-out: Activity
HT-29 [8] = test: Growth inhibition of human HT-29 cells assessed as cell growth at 0.01 uM incubated for 48 hrs by sulforhodamine B assay relative to control; details: read-out: Activity
HT-29 [9] = test: Growth inhibition of human HT-29 cells assessed as cell growth at 100 uM incubated for 48 hrs by sulforhodamine B assay relative to control; details: read-out: Activity
SW-620 = test: Growth inhibition of human SW-620 cells incubated for 48 hrs by sulforhodamine B assay
EKVX [10] = test: Growth inhibition of human EKVX cells assessed as cell growth at 0.1 uM incubated for 48 hrs by sulforhodamine B assay relative to control; details: read-out: Activity
SNB-75 = test: Growth inhibition of human SNB-75 cells assessed as cell growth at 1 uM incubated for 48 hrs by sulforhodamine B assay relative to control; details: read-out: Activity
T47D [11] = test: Growth inhibition of human T47D cells assessed as cell growth at 0.01 uM incubated for 48 hrs by sulforhodamine B assay relative to control; details: read-out: Activity
MDA-MB-435 = test: Growth inhibition of human MDA-MB-435 cells incubated for 48 hrs by sulforhodamine B assay
MCF7 [12] = test: Growth inhibition of human MCF7 cells assessed as cell growth at 0.01 uM incubated for 48 hrs by sulforhodamine B assay relative to control; details: read-out: Activity
RXF 393 = test: Growth inhibition of human RXF 393 cells incubated for 48 hrs by sulforhodamine B assay
SF-268 [13] = test: Growth inhibition of human SF-268 cells assessed as cell growth at 0.1 uM incubated for 48 hrs by sulforhodamine B assay relative to control; details: read-out: Activity
DU-145 = test: Growth inhibition of human DU-145 cells assessed as cell growth at 0.1 uM incubated for 48 hrs by sulforhodamine B assay relative to control; details: read-out: Activity
NCI/ADR-RES = test: Growth inhibition of human NCI/ADR-RES cells assessed as cell growth at 0.1 uM incubated for 48 hrs by sulforhodamine B assay relative to control; details: read-out: Activity
RPMI-8226 = test: Growth inhibition of human RPMI-8226 cells assessed as cell growth at 0.1 uM incubated for 48 hrs by sulforhodamine B assay relative to control; details: read-out: Activity
[14] = read-out: LC50 (the source's name)
[15] = read-out: pLC50 (the source's name) (converted)

Compound: CC(=O)Nc1cc(CCl)cc(NC(=O)c2ccc(C(=O)Nc3cccc(NC(=O)CCCN(C)C)c3)cc2)c1
- GI50 (KM12; read-out: GI50): > 100 µM
- CC50 (KM12; [14]): > 100 µM
- TGI (KM12; read-out: TGI): > 100 µM
- GI50 (KM12; read-out: pGI50 (converted)): > 100 µM
- CC50 (KM12; [15]): > 100 µM
- TGI (KM12; read-out: pTGI): > 100 µM
- growth at 0.1 µM (Hs-578T): 116%
- growth at 100 µM (T47D [1]): 71%
- growth at 1 µM (MCF7 [2]): 81%
- growth at 1 µM (CCRF-CEM): 107%
- growth at 0.1 µM (SN12C): 104%
- GI50 (LOX IMVI [3]; read-out: GI50): > 100 µM
- LC50 (concentration giving 50% cell kill) (LOX IMVI [3]; read-out: LC50): > 100 µM
- TGI (LOX IMVI [3]; read-out: TGI): > 100 µM
- GI50 (LOX IMVI [3]; read-out: pGI50 (converted)): > 100 µM
- LC50 (concentration giving 50% cell kill) (LOX IMVI [3]; read-out: pLC50 (converted)): > 100 µM
- TGI (LOX IMVI [3]; read-out: pTGI): > 100 µM
- growth at 1 µM (UACC-62): 102%
- growth at 100 µM (SF-539): 112%
- growth at 0.01 µM (UO-31): 94%
- growth at 1 µM (SF-268 [4]): 101%
- growth at 100 µM (MDA-MB-231): 74%
- GI50 (OVCAR-5; read-out: GI50): > 100 µM
- LC50 (OVCAR-5; read-out: LC50): > 100 µM
- TGI (OVCAR-5; read-out: TGI): > 100 µM
- GI50 (OVCAR-5; read-out: pGI50 (converted)): > 100 µM
- LC50 (OVCAR-5; read-out: pLC50 (converted)): > 100 µM
- TGI (OVCAR-5; read-out: pTGI): > 100 µM
- growth at 100 µM (786-0): 122%
- growth at 100 µM (LOX IMVI [5]): 75%
- growth at 0.01 µM (NCI-H460): 105%
- GI50 (HCT-116; read-out: GI50): > 100 µM
- CC50 (HCT-116; [14]): > 100 µM
- TGI (HCT-116; read-out: TGI): > 100 µM
- GI50 (HCT-116; read-out: pGI50 (converted)): > 100 µM
- CC50 (HCT-116; [15]): > 100 µM
- TGI (HCT-116; read-out: pTGI): > 100 µM
- growth at 1 µM (T47D [6]): 94%
- growth at 0.01 µM (IGROV-1): 113%
- GI50 (EKVX [7]; read-out: GI50): > 100 µM
- LC50 (EKVX [7]; read-out: LC50): > 100 µM
- TGI (EKVX [7]; read-out: TGI): > 100 µM
- GI50 (EKVX [7]; read-out: pGI50 (converted)): > 100 µM
- LC50 (EKVX [7]; read-out: pLC50 (converted)): > 100 µM
- TGI (EKVX [7]; read-out: pTGI): > 100 µM
- growth at 0.1 µM (NCI-H226): 92%
- growth at 0.01 µM (HT-29 [8]): 103%
- growth at 100 µM (HT-29 [9]): 51%
- GI50 (SW-620; read-out: GI50): > 100 µM
- LC50 (SW-620; read-out: LC50): > 100 µM
- TGI (SW-620; read-out: TGI): > 100 µM
- GI50 (SW-620; read-out: pGI50 (converted)): > 100 µM
- LC50 (SW-620; read-out: pLC50 (converted)): > 100 µM
- TGI (SW-620; read-out: pTGI): > 100 µM
- growth at 0.1 µM (EKVX [10]): 87%
- growth at 1 µM (SNB-75): 78%
- growth at 0.01 µM (T47D [11]): 106%
- GI50 (MDA-MB-435; read-out: GI50): > 100 µM
- LC50 (50% lethal concentration) (MDA-MB-435; read-out: LC50): > 100 µM
- TGI (MDA-MB-435; read-out: TGI): > 100 µM
- GI50 (MDA-MB-435; read-out: pGI50 (converted)): > 100 µM
- LC50 (50% lethal concentration) (MDA-MB-435; read-out: pLC50 (converted)): > 100 µM
- TGI (MDA-MB-435; read-out: pTGI): > 100 µM
- growth at 0.01 µM (MCF7 [12]): 88%
- GI50 (RXF 393; read-out: GI50): > 100 µM
- CC50 (RXF 393; [14]): > 100 µM
- TGI (RXF 393; read-out: TGI): > 100 µM
- GI50 (RXF 393; read-out: pGI50 (converted)): > 100 µM
- CC50 (RXF 393; [15]): > 100 µM
- TGI (RXF 393; read-out: pTGI): > 100 µM
- growth at 0.1 µM (SF-268 [13]): 101%
- growth at 0.1 µM (DU-145): 106%
- growth at 0.1 µM (NCI/ADR-RES): 98%
- growth at 0.1 µM (RPMI-8226): 113%
